Measurements reported in patent US7947717B2 (priority 2008, dated 2011).
Read-outs that look alike come from different tables or passages of the source.

What was measured:
MMP-2 = molecular target: T1, MMP-2 (Homo sapiens, UniProt P08253); assay: MMP-2 assay (Anaspec kit); format: biochemical
T1 construct: purchased Anaspec, Inc. 71151/71155
T1 sequence (P08253 110-660): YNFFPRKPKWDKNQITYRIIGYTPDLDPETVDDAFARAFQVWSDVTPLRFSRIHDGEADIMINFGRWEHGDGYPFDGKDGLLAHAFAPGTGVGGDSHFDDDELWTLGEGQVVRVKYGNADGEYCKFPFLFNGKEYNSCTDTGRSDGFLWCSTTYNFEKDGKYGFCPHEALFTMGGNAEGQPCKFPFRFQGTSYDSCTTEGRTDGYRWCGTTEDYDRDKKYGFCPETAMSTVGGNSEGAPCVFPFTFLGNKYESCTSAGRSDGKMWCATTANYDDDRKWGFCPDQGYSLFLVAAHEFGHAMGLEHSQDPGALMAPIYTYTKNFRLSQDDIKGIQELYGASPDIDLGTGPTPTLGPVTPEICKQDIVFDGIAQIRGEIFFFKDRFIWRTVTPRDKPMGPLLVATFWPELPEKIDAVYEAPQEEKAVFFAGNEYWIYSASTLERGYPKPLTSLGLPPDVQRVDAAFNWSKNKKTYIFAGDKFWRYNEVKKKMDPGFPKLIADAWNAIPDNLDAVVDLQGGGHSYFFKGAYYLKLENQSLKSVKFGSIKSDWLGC

lethal factor (LF) = lethal factor (LF) (Bacillus anthracis, UniProt P15917); assay: biochemical; format: biochemical
BoNT A = BoNT A (Clostridium botulinum, UniProt P0DPI0); assay: biochemical
MMP-9 = molecular target: T2, MMP-9 (Homo sapiens, UniProt P14780); assay: MMP-9 assay (Anaspec kit); format: biochemical
T2 construct: purchased Anaspec, Inc. 71151/71155

RAW 264.7 cells = format: cell-based, Murine
physchem = conditions: 23 °C, pH 7.4, aqueous with cosolvent or surfactant or cyclodextrin, kinetic from dmso stock

Chain of BoNT A (P0DPI0 whole entry, looked up): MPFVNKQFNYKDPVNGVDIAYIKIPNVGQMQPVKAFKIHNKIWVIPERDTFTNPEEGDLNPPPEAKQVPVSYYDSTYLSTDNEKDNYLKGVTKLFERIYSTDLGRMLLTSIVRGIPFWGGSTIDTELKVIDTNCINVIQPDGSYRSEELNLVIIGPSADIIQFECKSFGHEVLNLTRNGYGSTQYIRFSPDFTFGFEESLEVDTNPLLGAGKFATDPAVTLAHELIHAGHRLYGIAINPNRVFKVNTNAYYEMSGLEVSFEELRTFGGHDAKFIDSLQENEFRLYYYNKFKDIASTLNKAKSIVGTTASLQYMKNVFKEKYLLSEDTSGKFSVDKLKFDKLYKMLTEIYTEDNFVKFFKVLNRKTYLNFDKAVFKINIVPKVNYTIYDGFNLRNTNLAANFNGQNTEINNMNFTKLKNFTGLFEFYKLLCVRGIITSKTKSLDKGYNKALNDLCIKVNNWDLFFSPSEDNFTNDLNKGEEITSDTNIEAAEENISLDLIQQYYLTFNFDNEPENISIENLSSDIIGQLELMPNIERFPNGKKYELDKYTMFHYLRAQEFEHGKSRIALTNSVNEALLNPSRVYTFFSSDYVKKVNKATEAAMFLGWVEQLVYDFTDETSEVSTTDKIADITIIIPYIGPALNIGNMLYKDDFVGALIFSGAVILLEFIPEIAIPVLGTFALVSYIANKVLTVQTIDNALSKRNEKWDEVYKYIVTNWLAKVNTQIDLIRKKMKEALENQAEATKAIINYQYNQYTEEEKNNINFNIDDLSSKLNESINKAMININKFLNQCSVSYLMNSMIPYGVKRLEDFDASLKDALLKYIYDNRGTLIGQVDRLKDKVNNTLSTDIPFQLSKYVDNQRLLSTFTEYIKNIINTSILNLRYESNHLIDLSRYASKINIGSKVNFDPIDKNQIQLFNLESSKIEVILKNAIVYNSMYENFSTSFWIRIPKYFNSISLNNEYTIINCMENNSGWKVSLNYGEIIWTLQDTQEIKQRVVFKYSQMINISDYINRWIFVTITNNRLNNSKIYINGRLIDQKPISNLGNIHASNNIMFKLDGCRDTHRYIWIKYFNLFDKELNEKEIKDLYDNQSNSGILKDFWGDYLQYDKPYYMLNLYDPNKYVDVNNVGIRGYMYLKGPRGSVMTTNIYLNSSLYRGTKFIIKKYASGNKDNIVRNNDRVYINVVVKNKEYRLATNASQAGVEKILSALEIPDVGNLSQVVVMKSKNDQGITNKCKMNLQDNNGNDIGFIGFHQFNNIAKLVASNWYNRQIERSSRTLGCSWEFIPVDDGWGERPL
T2 sequence (P14780 107-707 limits assumed): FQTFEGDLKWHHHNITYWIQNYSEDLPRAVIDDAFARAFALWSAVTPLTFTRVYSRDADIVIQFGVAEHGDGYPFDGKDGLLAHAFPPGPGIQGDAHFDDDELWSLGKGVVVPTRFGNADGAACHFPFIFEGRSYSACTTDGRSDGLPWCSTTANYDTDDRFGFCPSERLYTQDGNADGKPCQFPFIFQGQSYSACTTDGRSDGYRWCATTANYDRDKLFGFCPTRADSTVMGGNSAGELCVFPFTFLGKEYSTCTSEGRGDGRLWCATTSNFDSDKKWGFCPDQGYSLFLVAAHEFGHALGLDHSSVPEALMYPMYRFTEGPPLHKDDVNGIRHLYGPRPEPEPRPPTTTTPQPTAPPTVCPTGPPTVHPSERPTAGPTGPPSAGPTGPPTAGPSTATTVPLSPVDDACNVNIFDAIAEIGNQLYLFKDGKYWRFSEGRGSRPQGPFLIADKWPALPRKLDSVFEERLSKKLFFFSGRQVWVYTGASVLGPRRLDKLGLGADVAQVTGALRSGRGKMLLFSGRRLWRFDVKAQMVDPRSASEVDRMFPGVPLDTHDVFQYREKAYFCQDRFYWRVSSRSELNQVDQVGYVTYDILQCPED
Chain of lethal factor (LF) (P15917 34-809 limits assumed): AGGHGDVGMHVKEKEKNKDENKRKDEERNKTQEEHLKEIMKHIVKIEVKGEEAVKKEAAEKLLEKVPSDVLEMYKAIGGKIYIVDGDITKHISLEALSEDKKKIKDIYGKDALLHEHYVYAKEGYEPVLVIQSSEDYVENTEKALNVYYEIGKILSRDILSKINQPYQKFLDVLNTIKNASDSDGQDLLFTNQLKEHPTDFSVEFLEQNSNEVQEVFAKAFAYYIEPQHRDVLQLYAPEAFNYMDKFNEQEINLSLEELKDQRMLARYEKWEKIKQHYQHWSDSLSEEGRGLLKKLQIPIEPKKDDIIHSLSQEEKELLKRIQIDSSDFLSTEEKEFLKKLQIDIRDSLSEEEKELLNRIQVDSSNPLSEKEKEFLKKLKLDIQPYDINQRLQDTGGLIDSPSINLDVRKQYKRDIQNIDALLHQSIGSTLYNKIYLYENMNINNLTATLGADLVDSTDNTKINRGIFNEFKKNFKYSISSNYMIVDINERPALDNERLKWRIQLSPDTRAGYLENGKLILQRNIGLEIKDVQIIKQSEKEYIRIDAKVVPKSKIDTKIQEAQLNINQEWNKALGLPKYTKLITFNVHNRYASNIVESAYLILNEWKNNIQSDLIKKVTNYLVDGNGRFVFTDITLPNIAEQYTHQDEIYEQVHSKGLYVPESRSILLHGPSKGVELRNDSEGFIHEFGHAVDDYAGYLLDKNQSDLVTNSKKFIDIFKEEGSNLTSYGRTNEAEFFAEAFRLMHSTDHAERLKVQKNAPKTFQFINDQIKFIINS

In the case of `O=C(O)CN1C(=O)/C(=C/c2cc(-c3ccco3)on2)SC1=S` [Compound 20, (Z)-2-(5-((5-(furan-2-yl)isoxazol-3-yl)methylene)-4-oxo-2-thioxothiazolidin-3-yl)acetic acid], the IC50 (MMP-2; read-out: MMP2 IC50) is reported as 39.4 µM, the IC50 (lethal factor (LF); pH 7.4, read-out: LF IC50) is reported as 17 µM and the IC50 (BoNT A) is reported as > 200 µM.

With `O=C(O)CN1C(=O)C(=Cc2cc(-c3ccccc3)on2)SC1=S` [Compound 21, 2-(4-oxo-2-thioxo-5-((5-phenylisoxazol-3-yl)methylene)thiazolidin-3-yl)acetic acid] the IC50 (MMP-2) was > 100 µM, the IC50 (lethal factor (LF)) was 18.7 µM and the IC50 (MMP-9) was 50 µM. The IC50 (BoNT A) was > 200 µM.

For `Cc1ccc(-c2cc(C=C3SC(=S)N(CC(=O)O)C3=O)no2)cc1` [Compound 22, 2-(4-oxo-2-thioxo-5-((5-p-tolylisoxazol-3-yl)methylene)thiazolidin-3-yl)acetic acid], the IC50 (MMP-2) was < 10 µM, the IC50 (lethal factor (LF)) was 5.9 µM and the IC50 (MMP-9) was > 100 µM. The IC50 (BoNT A) was 130 µM.

In the case of `COc1ccc(-c2cc(C=C3SC(=S)N(CC(=O)O)C3=O)no2)cc1` [Compound 23, 2-(5-((5-(4-methoxyphenyl)isoxazol-3-yl)methylene)-4-oxo-2-thioxothiazolidin-3-yl)acetic acid], the IC50 (MMP-2) is reported as 6.62 µM, the IC50 (MMP-9) is reported as > 100 µM and the IC50 (BoNT A) is reported as 194 µM.

For `O=C(O)CN1C(=O)C(=Cc2cc(-c3ccc(Cl)cc3)on2)SC1=S` [Compound 24, 2-(5-((5-(4-chlorophenyl)isoxazol-3-yl)methylene)-4-oxo-2-thioxothiazolidin-3-yl)acetic acid], the IC50 (MMP-2) was 19.2 µM, the IC50 (MMP-9) was > 100 µM and the IC50 (BoNT A) was 82.7 µM.

In the case of `O=C(O)CN1C(=O)C(=Cc2cc(-c3ccc(F)cc3)on2)SC1=S` [Compound 25, 2-(5-((5-(4-fluorophenyl)isoxazol-3-yl)methylene)-4-oxo-2-thioxothiazolidin-3-yl)acetic acid], the IC50 (MMP-2) is reported as 10 µM, the IC50 (lethal factor (LF)) is reported as 12.4 µM and the IC50 (MMP-9) is reported as > 100 µM. For the same molecule, the IC50 (BoNT A) was > 200 µM.

With `O=C(O)CN1C(=O)C(=Cc2cc(-c3ccc(Br)cc3)on2)SC1=S` [Compound 26, 2-(5-((5-(4-bromophenyl)isoxazol-3-yl)methylene)-4-oxo-2-thioxothiazolidin-3-yl)acetic acid] the IC50 (MMP-2) was > 100 µM, the IC50 (lethal factor (LF)) was 17.3 µM and the IC50 (MMP-9) was 27.4 µM. For the same molecule, the IC50 (BoNT A) was > 200 µM.

In the case of `O=C(O)CN1C(=O)/C(=C/c2cn(-c3ccc(F)cc3F)nc2-c2cccnc2)SC1=S` [Compound 32, (Z)-2-(5-((1-(2,4-difluorophenyl)-3-(pyridin-3-yl)-1H-pyrazol-4-yl)methylene)-4-oxo-2-thioxothiazolidin-3-yl)acetic acid], the IC50 (MMP-2) is reported as 13.7 µM, the IC50 (lethal factor (LF); pH 7.4, read-out: LF IC50) is reported as 2.99 µM and the IC50 (BoNT A) is reported as 71.5 µM.

`O=C(O)CN1C(=O)/C(=C/c2cn(-c3ccc(F)cc3)nc2-c2ccc(F)cc2)SC1=S` [Compound 33, (Z)-2-(5-((1,3-bis(4-fluorophenyl)-1H-pyrazol-4-yl)methylene)-4-oxo-2-thioxothiazolidin-3-yl)acetic acid] gave an IC50 (MMP-2) of 39.4 µM, an IC50 (lethal factor (LF); pH 7.4, read-out: LF IC50) of 4.22 µM and an IC50 (BoNT A) of 52.6 µM.

For `O=C(O)CN1C(=O)/C(=C/c2cn(-c3ccc(Br)cc3)nc2-c2ccc(Br)cc2)SC1=S` [Compound 35, (Z)-2-(5-((1,3-bis(4-bromophenyl)-1H-pyrazol-4-yl)methylene)-4-oxo-2-thioxothiazolidin-3-yl)acetic acid], the “inhibition of MMP-2 (in words)” value (MMP-2) was “did not inhibit”, the IC50 (lethal factor (LF); pH 7.4, read-out: LF IC50) was 3.35 µM and the “inhibition of MMP-9 (in words)” value (MMP-9) was “did not inhibit”. For the same molecule, the IC50 (BoNT A) was 5.45 µM.

In the case of `O=C1/C(=C/c2cn(-c3ccccc3)nc2-c2ccc(OCc3ccc(Cl)cc3)cc2)SC(=S)N1CCS(=O)(=O)O` [Compound 38, (Z)-2-(5-((3-(4-(4-chlorobenzyloxy)phenyl)-1-phenyl-1H-pyrazol-4-yl)methylene)-4-oxo-2-thioxothiazolidin-3-yl)ethanesulfonic acid], the IC50 (MMP-2) is reported as 10.1 µM, the IC50 (lethal factor (LF); pH 7.4, read-out: LF IC50) is reported as 2.45 µM and the “protection of macrophages from LF/PA-induced cell death” value (“protection of macrophages” for short) (RAW 264.7 cells) is reported as “protect macrophages from LF/PA-induced cell death”. For the same molecule, the IC50 (BoNT A) was > 200 µM.

In the case of `CC1Cc2cc(-c3nn(-c4ccccc4)cc3/C=C3\SC(=S)N(CCS(=O)(=O)O)C3=O)ccc2O1` (centres unmarked) [Compound 39, (Z)-2-(5-((3-(2-methyl-2,3-dihydrobenzofuran-5-yl)-1-phenyl-1H-pyrazol-4-yl)methylene)-4-oxo-2-thioxothiazolidin-3-yl)ethanesulfonic acid], the IC50 (lethal factor (LF); pH 7.4, read-out: LF IC50) is reported as 2.29 µM, the “protection of macrophages” value (RAW 264.7 cells) is reported as “protect macrophages from LF/PA-induced cell death” and the IC50 (BoNT A) is reported as > 200 µM.

In the case of `COc1ccc(-c2nn(-c3ccccc3)cc2/C=C2\SC(=S)N(CCS(=O)(=O)O)C2=O)cc1` [Compound 40, (Z)-2-(5-((3-(4-methoxyphenyl)-1-phenyl-1H-pyrazol-4-yl)methylene)-4-oxo-2-thioxothiazolidin-3-yl)ethanesulfonic acid], the IC50 (MMP-2) is reported as 34.5 µM, the IC50 (lethal factor (LF); pH 7.4, read-out: LF IC50) is reported as 2.04 µM and the “protection of macrophages” value (RAW 264.7 cells) is reported as “protect macrophages from LF/PA-induced cell death”. The IC50 (BoNT A) was > 200 µM.

In the case of `O=C1/C(=C/c2cn(-c3ccccc3)nc2-c2ccc(Cl)cc2)SC(=S)N1CCS(=O)(=O)O` [Compound 41, (Z)-2-(5-((3-(4-chlorophenyl)-1-phenyl-1H-pyrazol-4-yl)methylene)-4-oxo-2-thioxothiazolidin-3-yl)ethanesulfonic acid], the IC50 (MMP-2) is reported as 26.9 µM, the IC50 (lethal factor (LF); pH 7.4, read-out: LF IC50) is reported as 3.66 µM and the IC50 (BoNT A) is reported as > 200 µM.

With `O=C(O)CN1C(=O)/C(=C/c2sc(Br)c3c2OCCO3)SC1=S` [Compound 47, (Z)-2-(5-((7-bromo-2,3-dihydrothieno[3,4-b][1,4]dioxin-5-yl)methylene)4-oxo-2-thioxothiazolidin-3-yl)acetic acid] the IC50 (MMP-2; read-out: MMP2 IC50) was 50.6 µM, the IC50 (lethal factor (LF); pH 7.4, read-out: LF IC50) was 11.4 µM and the IC50 (BoNT A) was > 200 µM.

`O=C(O)CN1C(=O)/C(=C/c2ccc(N3CCOCC3)s2)SC1=S` [Compound 48, (Z)-2-(5-((5-morpholinothiophen-2-yl)methylene)-4-oxo-2-thioxothiazolidin-3-yl)acetic acid] gave an IC50 (MMP-2; read-out: MMP2 IC50) of 47.1 µM, an IC50 (lethal factor (LF); pH 7.4, read-out: LF IC50) of 32.5 µM and an IC50 (MMP-9; read-out: MMP9 IC50) of 64.9 µM. The IC50 (BoNT A) was 112 µM.

With `Cc1ccc2cc(/C=C3\SC(=S)N(CC(=O)O)C3=O)ccc2n1` [Compound 54, (Z)-2-(5-((2-methylquinolin-6-yl)methylene)-4-oxo-2-thioxothiazolidin-3-yl)acetic acid] the IC50 (MMP-2; read-out: MMP2 IC50) was 18 µM, the IC50 (lethal factor (LF); pH 7.4, read-out: LF IC50) was 5.25 µM and the IC50 (BoNT A) was > 200 µM.

Molecule `O=C(O)CN1C(=O)/C(=C/c2csc3ccc(Br)cc23)SC1=S` [Compound 58, (Z)-2-(5-((5-bromobenzo[b]thiophen-3-yl)methylene)-4-oxo-2-thioxothiazolidin-3-yl)acetic acid] has an IC50 (MMP-2; read-out: MMP2 IC50) of 46.9 µM, an IC50 (lethal factor (LF); pH 7.4, read-out: LF IC50) of 10.4 µM and an IC50 (MMP-9; read-out: MMP9 IC50) of 64.9 µM. It also gave an IC50 (BoNT A) of 74.3 µM.

With `O=C(O)CN1C(=O)/C(=C2/C(=O)N(CC(=O)Nc3cccc(Cl)c3)c3ccccc32)SC1=S` [Compound 62, (Z)-2-(5-(1-(2-(3-chlorophenylamino)-2-oxoethyl)-2-oxoindolin-3-ylidene)-4-oxo-2-thioxothiazolidin-3-yl)acetic acid] the IC50 (MMP-2) was > 25 µM, the IC50 (lethal factor (LF); pH 7.4, read-out: LF IC50) was 4.4 µM and the IC50 (MMP-9) was > 25 µM. For the same molecule, the IC50 (BoNT A) was > 200 µM.

In the case of `COCCc1ccc(OCC(O)CNC(C)C)cc1` (centres unmarked) [Metoprolol], the “Pampa (d) permeability class” value is reported as “High”.

In the case of `CC(C)NCC(O)COc1cccc2ccccc12` (centres unmarked) [Propranolol], the “Pampa (d) permeability class” value is reported as “High”.

With `CC(=O)Oc1ccccc1C(=O)O` [acetylsalicylic acid, reference compound] the solubility (physchem) was > 100 µg/mL.

With Lucifer Yellow the “Pampa (d) permeability class” value was “Low”.
